The values below come from patent US9676758B2, “1-heteroaryl-indoline-4-carboxamides as modulators of GPR52 useful for the treatment or prevention of disorders related thereto” (Arena Pharmaceuticals, Inc., priority 2015, dated 2017).

Data set [1] in a line: Brain penetration (plasma and brain exposure). The format is in vivo, mouse. Conditions: male C57BL6 mice, 60 minute time point. As for the experimental part: Plasma and brain exposure were evaluated to determine the brain penetration of compounds described herein. Male C57BL6 mice were administered a single per oral (PO) dose of compound at 3 or 10 mg/kg (as a free base) formulated in 20% HPCD in 0.9% NaCl. Blood and brain samples were collected 60 minutes post-dose (n=3-6 animals). Blood was collected via cardiac puncture and stored on ice prior to the separation of plasma by centrifugation. Brains were extracted from the cranium and frozen on dry ice. Tissue samples were stored at approximately −80° C. prior to bioanalytical analysis.
Analyte plasma and brain concentrations were determined by LC/MS/MS.

For another data set, the target named is T1, recombinant GPR52 (Homo sapiens, UniProt Q9Y2T5).
T1 construct: expressed in transfected cells
T1 sequence (Q9Y2T5 whole entry): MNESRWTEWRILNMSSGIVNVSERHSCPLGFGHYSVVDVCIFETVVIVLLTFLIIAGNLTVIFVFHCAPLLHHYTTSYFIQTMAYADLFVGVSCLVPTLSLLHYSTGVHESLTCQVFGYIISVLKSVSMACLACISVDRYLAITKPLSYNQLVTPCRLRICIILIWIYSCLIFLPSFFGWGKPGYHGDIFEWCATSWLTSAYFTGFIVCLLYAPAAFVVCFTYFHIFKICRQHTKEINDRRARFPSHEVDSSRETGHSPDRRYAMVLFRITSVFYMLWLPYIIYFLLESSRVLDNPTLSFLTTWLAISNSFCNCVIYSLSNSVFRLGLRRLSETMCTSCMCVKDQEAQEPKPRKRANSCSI
Put plainly: HTRF cAMP assay for direct cAMP measurement. The format is cell-based. Conditions: mean EC50; CHO-K1 or HEK293 cells stably expressing recombinant GPR52. As for the experimental part: HTRF cAMP assays were performed using commercially available assay kits according to the manufacturer's instructions (cAMP Dynamic 2 Assay Kit; #62AM4PEJ, Cisbio Bioassays, Bedford, Mass.). CHO-K1 or HEK293 cells stably expressing recombinant GPR52 were harvested and resuspended in assay buffer (PBS containing 0.5 mM IBMX and 0.1% BSA) at a density of 1.2×10^6 cells per mL. […] Test compounds were solubilized and serially diluted in DMSO using 5-fold dilutions to generate 10-point dose response curves. These serially diluted samples were then further diluted in PBS to achieve a 2× stock. The diluted compounds were transferred to triplicate assay plates (5 μL per well to achieve the 1× final assay concentration). A positive control was included in each assay run. After one-hour incubation at room temperature, 5 μL of cAMP D2 reagent diluted in lysis buffer was added to each well, followed by 5 μL of cryptate reagent. Plates were then incubated at room temperature for one hour prior to reading. Time-resolved fluorescence measurements were collected on an HTRF-capable plate reader (e.g., EnVision® (PerkinElmer, Waltham, Mass.) or PHERAstar (BMG LABTECH, Cary, N.C.)). Counts from the plate reader were fit to the cAMP standard curve included on each plate to determine the amount of cAMP in each test well. Dose-response curves were generated from the cAMP data and analyzed using a nonlinear least squares curve-fitting program to obtain EC50 values.

In the next data set the test system is male C57/BL6 mice. Briefly: Mouse basal locomotor activity. The format is in vivo. Conditions: po, 10 mg/kg P.O. As for the experimental part: To measure basal locomotor activity, male C57/BL6 mice (8-16 weeks) (Jackson Laboratories, Sacramento, Calif.) were transferred in home cages to the testing room approximately 60 minutes prior to testing. Approximately 15 minutes after arrival in the testing room, a dark cycle commenced, with lights turning off and infrared lights turning on for experimenter visibility. Thirty minutes after the lights were turned off, animals were individually weighed and administered either vehicle (20% hydroxypropyl-β-cyclodextrin) Compound 13 (1, 2, 5, 10, or 20 mg/kg P.O.), or another GPR52 agonist (10 mg/kg P.O.) and returned to home cages. Fifteen minutes later, mice were placed into locomotor cages and activity was recorded for 60 minutes.

In general, EC50 refers to the midpoint of the concentration-response curve. One may read the inhibition as the relative decrease from the control value, in per cent. A higher inhibition goes with a response far below the control.

As to `NC(=O)c1cccc2c1CCN2c1cc(Cc2cccc(C(F)(F)F)c2)ccn1` [Compound 5, 1-(4-(3-(Trifluoromethyl)benzyl)pyridin-2-yl)indoline-4-carboxamide], in data set [1] (PO dose 3 mg/kg), the “Brain/Plasma Ratio” value was 4.49.

In the case of `NC(=O)c1cccc2c1CCN2c1cc(Cc2cc(F)cc(Cl)c2)ccn1` [Compound 42, 1-(4-(3-Chloro-5-fluorobenzyl)pyridin-2-yl)indoline-4-carboxamide], the “Brain/Plasma Ratio” value in data set [1] (PO dose 10 mg/kg) turned out to be 12.40. Regarding `O=C(NCCO)c1cccc2c1CCN2c1cc(Cc2cc(F)cc(Cl)c2)ccn1` [Compound 43, 1-(4-(3-Chloro-5-fluorobenzyl)pyridin-2-yl)-N-(2-hydroxyethyl)indoline-4-carboxamide], the EC50 at recombinant GPR52 is 9.76 nM. Further, the “Brain/Plasma Ratio” value in data set [1] (PO dose 10 mg/kg) was 5.45. Also, the inhibition at 10 mg/kg in the data set on male C57/BL6 mice amounted to 79%. On to `NC(=O)c1cccc2c1CCN2c1cc(Cc2cncc(C(F)(F)F)c2)ccn1` [Compound 47, 1-(4-((5-(Trifluoromethyl)pyridin-3-yl)methyl)pyridin-2-yl)indoline-4-carboxamide], for which the “Brain/Plasma Ratio” value in data set [1] (PO dose 10 mg/kg) came out at 4.67. On to `COc1ccc(Cc2ccnc(N3CCc4c(C(N)=O)cccc43)c2)cc1F` [Compound 54, 1-(4-(3-Fluoro-4-methoxybenzyl)pyridin-2-yl)indoline-4-carboxamide], for which, at recombinant GPR52, the EC50 came to 5.57 nM. Also, the “Brain/Plasma Ratio” value in data set [1] (PO dose 10 mg/kg) is listed as 6.32. The molecule further had an inhibition at 10 mg/kg with male C57/BL6 mice of 66%.

In the case of `NC(=O)c1cccc2c1CCN2c1cc(Cc2ccc(F)c(Cl)c2)ccn1` [Compound 58, 1-(4-(3-Chloro-4-fluorobenzyl)pyridin-2-yl)indoline-4-carboxamide], the “Brain/Plasma Ratio” value in data set [1] (PO dose 10 mg/kg) is 7.76. In the data set on male C57/BL6 mice, `NC(=O)c1cccc2c1CCN2c1cc(Cc2ccc(F)c(C(F)(F)F)c2)ccn1` [Compound 61, 1-(4-(4-Fluoro-3-(trifluoromethyl)benzyl)pyridin-2-yl)indoline-4-carboxamide] gave an inhibition at 10 mg/kg of 61%.

Regarding `COc1ccc(Cc2ccnc(N3CCc4c(C(=O)NCCO)cccc43)c2)cc1F` [Compound 69, 1-(4-(3-Fluoro-4-methoxybenzyl)pyridin-2-yl)-N-(2-hydroxyethyl)indoline-4-carboxamide], the EC50 at recombinant GPR52 came out at 3.11 nM. The “Brain/Plasma Ratio” value in data set [1] (PO dose 10 mg/kg) was 0.87.

Take `CC(=O)c1cccc(Cc2ccnc(N3CCc4c(C(N)=O)cccc43)c2)c1` [Compound 78, 1-(4-(3-Acetylbenzyl)pyridin-2-yl)indoline-4-carboxamide]: the EC50 on recombinant GPR52 came to 11.2 nM. Also, the “Brain/Plasma Ratio” value in data set [1] (PO dose 10 mg/kg) turned out to be 1.36. Further, 10 mg/kg produced 72% inhibition in the data set on male C57/BL6 mice.

Take `O=C(NC1CCN(CCO)CC1)c1cccc2c1CCN2c1cc(Cc2ccc3c(c2)CCO3)ccn1` [Compound 79, 1-(4-((2,3-Dihydrobenzofuran-5-yl)methyl)pyridin-2-yl)-N-(1-(2-hydroxyethyl)piperidin-4-yl)indoline-4-carboxamide]: in data set [1] (PO dose 10 mg/kg), the “Brain/Plasma Ratio” value is given as 0.16.

As to `O=C(NCCO)c1cccc2c1CCN2c1cc(Cc2cc(F)c(F)c(F)c2)ccn1` [Compound 92, N-(2-Hydroxyethyl)-1-(4-(3,4,5-trifluorobenzyl)pyridin-2-yl)indoline-4-carboxamide], at recombinant GPR52, the EC50 was 8.87 nM. Besides, the “Brain/Plasma Ratio” value in data set [1] (PO dose 10 mg/kg) amounted to 3.00. The same molecule showed an inhibition at 10 mg/kg in the data set on male C57/BL6 mice of 65%. The molecule `NC(=O)c1cccc2c1CCN2c1cc(Cc2ccc3occc3c2)ccn1` [Compound 106, 1-(4-(Benzofuran-5-ylmethyl)pyridin-2-yl)indoline-4-carboxamide] gave an inhibition at 10 mg/kg with male C57/BL6 mice of 81%. As to `O=C(NCCO)c1c(F)ccc2c1CCN2c1cc(Cc2cccc(C(F)(F)F)c2)ccn1` [Compound 108, 5-Fluoro-N-(2-hydroxyethyl)-1-(4-(3-(trifluoromethyl)benzyl)pyridin-2-yl)indoline-4-carboxamide], in data set [1] (PO dose 10 mg/kg), the “Brain/Plasma Ratio” value is given as 1.67. In the data set on male C57/BL6 mice, `COC[C@@H](O)CNC(=O)c1cccc2c1CCN2c1cc(Cc2cc(F)c(F)c(F)c2)ccn1` [Compound 138, (S)—N-(2-Hydroxy-3-methoxypropyl)-1-(4-(3,4,5-trifluorobenzyl)pyridin-2-yl)indoline-4-carboxamide] displayed an inhibition at 10 mg/kg of 72%.

On to `O=C(NCCO)c1c(F)ccc2c1CCN2c1cc(Cc2cc(F)c(F)c(F)c2)ccn1` [Compound 140, 5-Fluoro-N-(2-hydroxyethyl)-1-(4-(3,4,5-trifluorobenzyl)pyridin-2-yl)indoline-4-carboxamide], for which the EC50 at recombinant GPR52 was found to be 30.1 nM. This molecule returned an inhibition at 10 mg/kg in the data set with male C57/BL6 mice of 68%.

`O=C(NC[C@@H](F)CO)c1cccc2c1CCN2c1cc(Cc2cc(F)c(F)c(F)c2)ccn1` [Compound 166, (R)—N-(2-Fluoro-3-hydroxypropyl)-1-(4-(3,4,5-trifluorobenzyl)pyridin-2-yl)indoline-4-carboxamide]: on recombinant GPR52, the EC50 came out at 12.2 nM. The “Brain/Plasma Ratio” value in data set [1] (PO dose 10 mg/kg) worked out at 2.85. This molecule displayed an inhibition at 10 mg/kg in the data set on male C57/BL6 mice of 70%. Consider `COc1ccc(Cc2ccnc(N3CCc4c3ccc(F)c4C(=O)NC[C@@H](F)CO)c2)cc1F` [Compound 167, (R)-5-Fluoro-N-(2-fluoro-3-hydroxypropyl)-1-(4-(3-fluoro-4-methoxybenzyl)pyridin-2-yl)indoline-4-carboxamide], for which the concentration for a half-maximal effect (EC50) at recombinant GPR52 worked out at 18.2 nM. This molecule displayed an inhibition at 10 mg/kg in the data set on male C57/BL6 mice of 62%. Regarding `C[C@@H](O)CNC(=O)c1cccc2c1CCN2c1cc(Cc2cc(F)c(F)c(F)c2)ccn1` [Compound 179, (R)—N-(2-Hydroxypropyl)-1-(4-(3,4,5-trifluorobenzyl)pyridin-2-yl)indoline-4-carboxamide], in the data set on male C57/BL6 mice, the inhibition at 10 mg/kg worked out at 68%. On the same count and under the same terms, for `COc1ccc(Cc2ccnc(N3CCc4c(C(=O)NC[C@@H](F)CO)cccc43)c2)cc1F` [Compound 202, (R)—N-(2-Fluoro-3-hydroxypropyl)-1-(4-(3-fluoro-4-methoxybenzyl)pyridin-2-yl)indoline-4-carboxamide] the value was 67%.
